According to US6352959B1, “Thiochromanoylpyrazolone derivatives” (BASF Aktiengesellschaft, priority 1998, dated 2002):

Experiments:
Polygonum persicaria = test: greenhouse herbicidal test; assay type: in vivo; settings: rate and mode not restated in the sentence
Excerpt: (§1) The seeds of the test plants were sown separately for each species. For the post-emergence treatment, the test plants were first grown to a plant height of from 3 to 15 cm, depending on the plant habit, and only then treated with the active ingredients which had been suspended or emulsified in water. For this purpose, the test plants were either sown directly and grown in the same containers, or they were first grown separately as seedlings and transplanted into the test containers a few days prior to treatment. The application rate for the post-emergence treatment was 0.25 or 0.125 kg of a.s. (active substance) per ha. Depending on the species, the plants were kept at from 10 to 25° C. or from 20 to 35° C. The test period extended over 2 to 4 weeks. During this time, the plants were tended and their response to the individual treatments was evaluated. Evaluation was carried out using a scale from 0 to 100. 100 means no emergence of the plants, or complete destruction of at least the above-ground parts, and 0 means no damage or normal course of growth. [table]

Sinapis alba = test: greenhouse herbicidal test; assay type: in vivo; settings: rate and mode not restated in the sentence
Excerpt: as §1

Setaria viridis = test: greenhouse herbicidal test; assay type: in vivo; settings: rate and mode not restated in the sentence
Excerpt: as §1

Avena fatua = test: greenhouse herbicidal test; assay type: in vivo; settings: rate and mode not restated in the sentence
Excerpt: as §1

- melting point: 84 °C
SMILES: CCCOCc1c(C(=O)c2cnn(C)c2O)ccc2c1S(=O)(=O)CCC2(C)C [Compound 2.17, 4-{[4,4-Dimethyl-8-propoxymethyl-1,1-dioxothiochroman-7-yl]-carbonyl}-5-hydroxy-1-methylpyrazole]
- activity against the weed (Polygonum persicaria): very good activity
- activity against the weed (Sinapis alba): very good activity
- activity against the weed (Setaria viridis): very good activity
- activity against the weed (Avena fatua): very good activity
